Our source for the IC50 and viability, T/C values is PubChem BioAssay AID2060882 (Molecular Pharmacology Branch, DTP, NCI, 2025).

This assay has as its system 898857-211-R-J1-PDC complex spheroids, growth % test/control. Put plainly: Anticancer human tumor 898857-211-R-J1-PDC patient-derived melanoma cell line growth inhibition [RAS]. The settings on record: for viability, T/C: stronger effect = lower value. The method, boiled down:
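Tumour cells grown as complex spheroids with HUVEC endothelial cells and mesenchymal stem cells, treated with RAS pathway inhibitor combinations. Each agent spans half-log steps from near clinical Cmax, or 10 microM where Cmax is unknown.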
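Further: spheroids exposed to compound for seven days before readout.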
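Wherever viability, T/C is given: 100% = DMSO vehicle control wells.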

In general, IC50 refers to the concentration that gives 50% inhibition. One may read the viability, T/C as the result in the treated group divided by that in the control group, in per cent. Consider `Nc1ccn(C2OC(CO)C(O)C2(F)F)c(=O)n1` (stereo unspecified) + C=CC(=O)N1CCN(c2nc(OCC3CCCN3C)nc3c(F)c(-c4nc(N)cc(C)c4C(F)(F)F)c(Cl)cc23)C(C)C1, for which the IC50 (curve of first compound, second compound 0.00316 µM) was 7.89 nM; the IC50 (curve of first compound, second compound 0.01 µM) was 7.24 nM; the IC50 (curve of first compound, second compound 0.0316 µM) stood at 7.1 nM; the 50% inhibitory concentration (IC50) (curve of first compound, second compound 0.1 µM) came out at 6.99 nM; the 50% inhibitory concentration (IC50) (curve of first compound, second compound 0.316 µM) was determined as 7.3 nM; the IC50 (curve of first compound, second compound 1 µM) was found to be 6.89 nM. For the same molecule, the viability, T/C reads like this: (second compound 0.00316 µM, first compound 0.00316 µM) 110%; (second compound 0.00316 µM, first compound 0.01 µM) 34.5%; (second compound 0.00316 µM, first compound 0.0316 µM) 6.39%; (second compound 0.00316 µM, first compound 0.1 µM) 4.85%; (second compound 0.00316 µM, first compound 0.316 µM) 5.1%; (second compound 0.00316 µM, first compound 1 µM) 4.69%. The viability, T/C was 107% (second compound 0.01 µM, first compound 0.00316 µM); 27.9% (second compound 0.01 µM, first compound 0.01 µM); 5.64% (second compound 0.01 µM, first compound 0.0316 µM); 4.72% (second compound 0.01 µM, first compound 0.1 µM); 4.8% (second compound 0.01 µM, first compound 0.316 µM); 4.83% (second compound 0.01 µM, first compound 1 µM). For the same molecule, the viability, T/C is 103% (second compound 0.0316 µM, first compound 0.00316 µM); 27.9% (second compound 0.0316 µM, first compound 0.01 µM); 7.07% (second compound 0.0316 µM, first compound 0.0316 µM); 5.22% (second compound 0.0316 µM, first compound 0.1 µM); 4.65% (second compound 0.0316 µM, first compound 0.316 µM); 4.83% (second compound 0.0316 µM, first compound 1 µM). In addition, the viability, T/C is, setting by setting: (second compound 0.1 µM, first compound 0.00316 µM) 96%; (second compound 0.1 µM, first compound 0.01 µM) 29.2%; (second compound 0.1 µM, first compound 0.0316 µM) 6.93%; (second compound 0.1 µM, first compound 0.1 µM) 4.35%; (second compound 0.1 µM, first compound 0.316 µM) 4.72%; (second compound 0.1 µM, first compound 1 µM) 4.89%. The viability, T/C reads like this: (second compound 0.316 µM, first compound 0.00316 µM) 103%; (second compound 0.316 µM, first compound 0.01 µM) 30.1%; (second compound 0.316 µM, first compound 0.0316 µM) 6.17%; (second compound 0.316 µM, first compound 0.1 µM) 5.08%; (second compound 0.316 µM, first compound 0.316 µM) 5.71%; (second compound 0.316 µM, first compound 1 µM) 4.45%. The viability, T/C is 104% (second compound 1 µM, first compound 0.00316 µM); 24% (second compound 1 µM, first compound 0.01 µM); 8.63% (second compound 1 µM, first compound 0.0316 µM); 5.29% (second compound 1 µM, first compound 0.1 µM); 6.52% (second compound 1 µM, first compound 0.316 µM); 5.69% (second compound 1 µM, first compound 1 µM).
On to `Nc1ccn(C2OC(CO)C(O)C2(F)F)c(=O)n1` (stereo unspecified), for which the viability, T/C runs as follows: (compound 0.01 µM) 30.2% [middle of 4 runs]; (compound 0.0316 µM) 6.09% [middle of 4 runs]; (compound 0.1 µM) 4.85% [middle of 4 runs]; (compound 0.316 µM) 4.59% [middle of 4 runs]; (compound 1 µM) 4.83% [middle of 4 runs]. The IC50 (curve of compound) is 7.17 nM [middle of 4 runs].
In the case of `CC(C)n1nc(-c2ccc3oc(N)nc3c2)c2c(N)ncnc21` + CCn1c(-c2cccnc2C(C)OC)c2c3cc(ccc31)N1CCOC(CC(NC(=O)C(C(C)C)N(C)C(=O)C3(F)CCN(C(=O)C#CC(C)(C)N(C)C)CC3)C(=O)N3CCCC(N3)C(=O)OCC(C)(C)C2)C1, the IC50 reads like this: (curve of first compound, second compound 0.000949 µM) 27.1 nM; (curve of first compound, second compound 0.003 µM) 23.8 nM; (curve of first compound, second compound 0.00949 µM) 23.8 nM; (curve of first compound, second compound 0.03 µM) 21 nM; (curve of first compound, second compound 0.0949 µM) 15.1 nM; (curve of first compound, second compound 0.3 µM) 7.05 nM. In addition, the viability, T/C (second compound 0.000949 µM, first compound 0.000316 µM) is 107%; the viability, T/C (second compound 0.000949 µM, first compound 0.001 µM) was 91.6%; the viability, T/C (second compound 0.000949 µM, first compound 0.00316 µM) is 87.2%; the viability, T/C (second compound 0.000949 µM, first compound 0.01 µM) was 68.7%; the viability, T/C (second compound 0.000949 µM, first compound 0.0316 µM) is 46.4%; the viability, T/C (second compound 0.000949 µM, first compound 0.1 µM) was 20.5%. Besides, the viability, T/C is 106% (second compound 0.003 µM, first compound 0.000316 µM); 90.9% (second compound 0.003 µM, first compound 0.001 µM); 78.8% (second compound 0.003 µM, first compound 0.00316 µM); 70% (second compound 0.003 µM, first compound 0.01 µM); 44.8% (second compound 0.003 µM, first compound 0.0316 µM); 20.4% (second compound 0.003 µM, first compound 0.1 µM). The viability, T/C was 99.1% (second compound 0.00949 µM, first compound 0.000316 µM); 99.2% (second compound 0.00949 µM, first compound 0.001 µM); 86.2% (second compound 0.00949 µM, first compound 0.00316 µM); 75.1% (second compound 0.00949 µM, first compound 0.01 µM); 41.3% (second compound 0.00949 µM, first compound 0.0316 µM); 17.7% (second compound 0.00949 µM, first compound 0.1 µM). Moreover, the viability, T/C is 103% (second compound 0.03 µM, first compound 0.000316 µM); 86.9% (second compound 0.03 µM, first compound 0.001 µM); 79.9% (second compound 0.03 µM, first compound 0.00316 µM); 72.1% (second compound 0.03 µM, first compound 0.01 µM); 36.8% (second compound 0.03 µM, first compound 0.0316 µM); 17% (second compound 0.03 µM, first compound 0.1 µM). Further, the viability, T/C (second compound 0.0949 µM, first compound 0.000316 µM) was 89.1%; the viability, T/C (second compound 0.0949 µM, first compound 0.001 µM) is 87.2%; the viability, T/C (second compound 0.0949 µM, first compound 0.00316 µM) is 86.5%; the viability, T/C (second compound 0.0949 µM, first compound 0.01 µM) is 55.6%; the viability, T/C (second compound 0.0949 µM, first compound 0.0316 µM) was 35.5%; the viability, T/C (second compound 0.0949 µM, first compound 0.1 µM) was 16.2%. Also, the viability, T/C (second compound 0.3 µM, first compound 0.000316 µM) is 74.9%; the viability, T/C (second compound 0.3 µM, first compound 0.001 µM) is 64%; the viability, T/C (second compound 0.3 µM, first compound 0.00316 µM) was 61.1%; the viability, T/C (second compound 0.3 µM, first compound 0.01 µM) was 46.3%; the viability, T/C (second compound 0.3 µM, first compound 0.0316 µM) was 30%; the viability, T/C (second compound 0.3 µM, first compound 0.1 µM) was 13.6%.
Take `CC(C)NCC(C(=O)N1CCN(c2ncnc3c2C(C)CC3O)CC1)c1ccc(Cl)cc1` (stereo unspecified): the viability, T/C is 101% [middle of 4 runs] (compound 0.1 µM); 104% [middle of 4 runs] (compound 0.316 µM); 93.2% [middle of 4 runs] (compound 1 µM); 78.1% [middle of 4 runs] (compound 3.16 µM); 58.9% [middle of 4 runs] (compound 10 µM). Also, the IC50 (curve of compound) was greater than 10000 nM.
